How the values were obtained:
Assay type in all cases: physicochemical
[1] = Moisture sorption/desorption analysis
Description: Moisture sorption/desorption data were collected on a VTI SGA-100 Vapor Sorption Analyzer. Sorption and desorption data were collected over a range of 5% to 95% relative humidity (RH) at 10% RH intervals under a nitrogen purge. Samples were not dried prior to analysis. Equilibrium criteria used for analysis were less than 0.0100% weight change in 5 minutes, with a maximum equilibration time of 3 hours if the weight criterion was not met. Data were not corrected for the initial moisture content of the samples. NaCl and PVP were used as calibration standards. Moisture sorption and desorption study was conducted on a sample of Form A+B. The sample was prepared by crashed cooling crystallization (Example 3, section A.6) of the polymorphic forms from a ethanol:water (95:5) solution of Compound I. The moisture sorption and desorption study was conducted according to the procedures outlined in Example 3, section B. 10. The data collected is plotted in FIG. 13 and summarized in Table L. Moisture sorption and desorption study was conducted on a sample of Form E. The sample was prepared by solvent/antisolvent crystallization (Example 3, section A.7) by the addition of acetonitrile to Compound I in water. The moisture sorption and desorption study was conducted according to the procedures outlined in Example 3, section B. 10. The data collected is plotted in FIG. 23 and summarized in Table M. Moisture sorption and desorption study was conducted on a sample of Amorphous Form. The sample was prepared by lyophilolization of a solution of Compound I in water (Example 3, section A.9). The moisture sorption and desorption study was conducted according to the procedures outlined in Example 3, section B. 10.

[2] = Approximate solubility of Compound I in different solvents; details: most solvents, with the exceptions of DMF, methanol, TFE, water and water:solvent mixtures
Description: Compound I prepared by the method described in Example 1 was used for the solubility study. Solvents and other reagents were of ACS or HPLC grade and were used as received.
A weighed sample (typically about 20-25 mg) of Compound I was treated at ambient temperature with aliquots (typically ≧50 μL) of the test solvent with sonication between additions. Solvents were either reagent or HPLC grade. Solubility was estimated from the total volume of solvent used to obtain a clear solution, as determined by visual inspection. Solubility is expressed as “less than” when dissolution was not observed. If dissolution occurred after the last aliquot was added then solubility is expressed as “greater than or equal to” (≧). The actual solubilities may be greater than determined, due to over addition of solvent (large aliquots) or slow dissolution rates. Approximate solubilities of Compound I are summarized in Table A. The solubility values have been rounded to the nearest whole number and are reported to the nearest mg/mL.

[3] = Relative humidity stressing experiments (form by XRPD); details: for Form by XRPD after relative humidity stressing: 29 days
Text: Samples of Compound I were placed uncovered in approximately 58%, 88%, and 97% relative humidity jars. The samples were stored in the jars for approximately 8 days. The solids were collected and analyzed by XRPD for form identification. Aliquots of Form A of Compound I were stored under approximately 50% and 97% relative humidity for 29 days. An aliquot of a mixture of Form A+B was stressed at 88% relative humidity for 23 days. Amorphous Form was stressed at 58% and 88% relative humidity for 23 days.

## Cn1c(=O)cc(N2CCC[C@@H](N)C2)n(Cc2ccccc2C#N)c1=O.O=C(O)CCC(=O)O [Amorphous Form]
[1]; at 75% relative humidity
  Weight lost during sorption: Approximately 7%

## Cn1c(=O)cc(N2CCC[C@@H](N)C2)n(Cc2cc(F)ccc2C#N)c1=O [Compound I, 2-[6-(3-amino-piperidin-1-yl)-3-methyl-2,4-dioxo-3,4-dihydro-2H-pyrimidin-1-ylmethyl]-4-fluoro-benzonitrile succinate]
[2]
  Solubility (in words): Poor solubility
[1]; lyophilized sample from H2O solution
  XRPD Form post MB: low crystallinity A
[1]; sample crystallized from H2O/ACN
  XRPD Form post MB: A + small quantity of E
[1]; sample prepared by CC from EtOH:H2O (95:5)
  XRPD Form post MB: A + B

## Cn1c(=O)cc(N2CCC[C@@H](N)C2)n(Cc2cc(F)ccc2C#N)c1=O.O=C(O)CCC(=O)O [Form A]
[3]; ambient conditions
  Stability (conclusion from characterization data): stable at ambient conditions
[3]; approximately 50% and 97% relative humidity
  Form by XRPD after relative humidity stressing: Form A
[3]; approximately 58% and 97% relative humidity
  Form by XRPD after relative humidity stressing: did not exhibit form changes

— patent US8084605B2, “Polymorphs of succinate salt of 2-[6-(3-amino-piperidin-1-yl)-3-methyl-2,4-dioxo-3,4-dihydro-2H-pyrimidin-1-ylmethy]-4-fluor-benzonitrile and methods of use therefor” (priority 2006, dated 2011)
